Results from patent publication US20250059220A1, “SUBSTITUTED BENZOTHIOPHENE DERIVATIVES AND METHODS OF USE THEREOF” (Merck Sharp & Dohme LLC, priority 2021, published 2025).

How the values were obtained:
human PTPN2 (1-387) = human PTPN2 (1-387) (Homo sapiens (Human), UniProt P17706); assay: Human PTPN2 Biochemical Assay; settings: DiFMUP substrate
Summary of the method: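 Human PTPN2 (1-387) preincubated 30 min at RT with compound (10-point 3-fold series) in Tris pH 7.4 buffer with 0.5 mM DTT, then DiFMUP substrate added for 1 h at RT. Fluorescence at ex 360/em 460 nm, normalised to no-enzyme and enzyme controls; EC50 from 4-parameter fit.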

human PTPN1 (1-435) = human PTPN1 (1-435) (Homo sapiens (Human), UniProt P18031); assay: Human PTPN1 Biochemical Assay; settings: DiFMUP substrate, read-out: PTP1B IC50
human PTPN1 (1-435), sequence (P18031 whole entry): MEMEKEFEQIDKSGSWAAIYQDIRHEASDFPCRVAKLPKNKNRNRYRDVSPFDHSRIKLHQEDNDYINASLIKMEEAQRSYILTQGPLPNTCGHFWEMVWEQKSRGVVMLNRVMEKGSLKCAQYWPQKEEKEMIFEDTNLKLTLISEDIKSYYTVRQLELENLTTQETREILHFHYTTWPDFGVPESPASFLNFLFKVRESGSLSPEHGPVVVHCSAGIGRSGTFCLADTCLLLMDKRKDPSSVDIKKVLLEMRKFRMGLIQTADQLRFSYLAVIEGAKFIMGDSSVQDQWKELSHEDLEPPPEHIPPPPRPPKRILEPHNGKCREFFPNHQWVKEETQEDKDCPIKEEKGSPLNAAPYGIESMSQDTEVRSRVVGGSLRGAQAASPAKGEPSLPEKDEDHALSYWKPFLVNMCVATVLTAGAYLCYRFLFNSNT
Summary of the method: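 Read-out is DiFMUP hydrolysis fluorescence (360 nm excitation, 460 nm emission) after 1 h at room temperature, following 30 min enzyme–compound preincubation.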

human PTPN2 (1-387), sequence (P17706 other isoform, or with tags, fused parts or gaps): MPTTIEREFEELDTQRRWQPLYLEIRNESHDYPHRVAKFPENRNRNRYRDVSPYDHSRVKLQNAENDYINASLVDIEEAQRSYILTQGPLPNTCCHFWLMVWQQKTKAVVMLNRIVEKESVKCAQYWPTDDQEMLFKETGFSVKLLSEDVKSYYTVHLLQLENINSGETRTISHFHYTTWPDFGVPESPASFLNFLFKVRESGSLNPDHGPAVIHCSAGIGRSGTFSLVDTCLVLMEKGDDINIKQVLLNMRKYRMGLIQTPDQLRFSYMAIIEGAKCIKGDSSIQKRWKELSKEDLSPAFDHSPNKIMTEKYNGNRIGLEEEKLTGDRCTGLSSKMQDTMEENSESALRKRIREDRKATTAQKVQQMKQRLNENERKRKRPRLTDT

Row | Structure (SMILES) | IC50 (human PTPN2 (1-387)) [µM] | IC50 (human PTPN1 (1-435)) [µM]
1 | O=C(Nc1cccc(C(=O)N2CCCC2)c1)c1ccc2sc(C(F)(F)P(=O)(O)O)c(Br)c2c1 [Compound 101] | 2.36 | 1.78
2 | CC(NC(=O)c1ccc2sc(C(F)(F)P(=O)(O)O)c(Br)c2c1)c1cccc(OC(F)(F)F)c1 (stereo not shown) [Compound 102] | 2.46 | 2.88
3 | CC(NC(=O)c1ccc2sc(C(F)(F)P(=O)(O)O)c(Br)c2c1)c1cnccn1 (stereo not shown) [Compound 103] | 3.46 | 3.14
4 | O=C(Nc1cccc(CO)n1)c1ccc2sc(C(F)(F)P(=O)(O)O)c(Br)c2c1 [Compound 104] | 6.5 | 9.15
5 | CCC(NC(=O)c1ccc2sc(C(F)(F)P(=O)(O)O)c(Br)c2c1)c1nccs1 (stereo not shown) [Compound 105] | 5.78 | 5.14
6 | Cc1c(NC(=O)c2ccc3sc(C(F)(F)P(=O)(O)O)c(Br)c3c2)cccc1C(=O)N1CCCC1 [Compound 106] | 8.97 | 6.92
7 | COCCOc1cc(C)ccc1NC(=O)c1ccc2sc(C(F)(F)P(=O)(O)O)c(Br)c2c1 [Compound 107] | 4.03 | 3.86
8 | O=C(Nc1ccccc1OC1CCOCC1)c1ccc2sc(C(F)(F)P(=O)(O)O)c(Br)c2c1 [Compound 108] | 3.62 | 4.08
9 | O=C(Nc1cccc(-n2nccn2)c1)c1ccc2sc(C(F)(F)P(=O)(O)O)c(Br)c2c1 [Compound 109] | 0.78 | 0.465
10 | O=C(NC1COc2ccccc2C1)c1ccc2sc(C(F)(F)P(=O)(O)O)c(Br)c2c1 (stereo not shown) [Compound 110] | 3.56 | 3.2
11 | O=C(NC1(c2cncc(C(F)(F)F)c2)CC1)c1ccc2sc(C(F)(F)P(=O)(O)O)c(Br)c2c1 [Compound 111] | 4.26 | 3.98
12 | COCC(NC(=O)c1ccc2sc(C(F)(F)P(=O)(O)O)c(Br)c2c1)c1ccc(F)cc1 (stereo not shown) [Compound 112] | 2.91 | 3.68
13 | CC(NC(=O)c1ccc2sc(C(F)(F)P(=O)(O)O)c(Br)c2c1)c1ccccc1-n1cccn1 (stereo not shown) [Compound 113] | 4.17 | 4.08
14 | O=C(NCC1CCCN(c2ncccn2)C1)c1ccc2sc(C(F)(F)P(=O)(O)O)c(Br)c2c1 (stereo not shown) [Compound 114] | 5.17 | 3.5
15 | O=C(NC1(c2cccc(F)c2)CCCC1)c1ccc2sc(C(F)(F)P(=O)(O)O)c(Br)c2c1 [Compound 115] | 2.6 | 3.62
16 | O=C(N[C@H]1CCN(C(=O)C2CC2)C1)c1ccc2sc(C(F)(F)P(=O)(O)O)c(Br)c2c1 [Compound 116] | 1.06 | 0.987
17 | O=C(NC(c1ccc(F)cc1)C(F)F)c1ccc2sc(C(F)(F)P(=O)(O)O)c(Br)c2c1 (stereo not shown) [Compound 117] | 2.73 | 2.14
18 | Cc1cc(C)n(-c2ccccc2NC(=O)c2ccc3sc(C(F)(F)P(=O)(O)O)c(Br)c3c2)n1 [Compound 118] | 6.17 | 5.91
19 | O=C(NCc1cnc2[nH]ccc2c1)c1ccc2sc(C(F)(F)P(=O)(O)O)c(Br)c2c1 [Compound 119] | 0.63 | 0.404
20 | O=C(NCc1cccnc1C(F)(F)F)c1ccc2sc(C(F)(F)P(=O)(O)O)c(Br)c2c1 [Compound 120] | 4.99 | 3.79
21 | O=C(NCc1ccc(C(F)(F)F)nc1)c1ccc2sc(C(F)(F)P(=O)(O)O)c(Br)c2c1 [Compound 121] | 3.1 | 2.31

Row | Structure (SMILES) | IC50 (human PTPN2 (1-387)) [µM] | IC50 (human PTPN1 (1-435)) [µM]
22 | COc1ncccc1CNC(=O)c1ccc2sc(C(F)(F)P(=O)(O)O)c(Br)c2c1 [Compound 122] | 5.37 | 3.89
23 | O=C(NCc1cnccn1)c1ccc2sc(C(F)(F)P(=O)(O)O)c(Br)c2c1 [Compound 123] | 4.29 | 3.56
24 | Cc1nn(C)c(C)c1CNC(=O)c1ccc2sc(C(F)(F)P(=O)(O)O)c(Br)c2c1 [Compound 124] | 7.38 | 6.12
25 | COCCCNC(=O)c1ccc2sc(C(F)(F)P(=O)(O)O)c(Br)c2c1 [Compound 125] | 6.52 | 5.23
26 | O=C(NCC1CNC1)c1ccc2sc(C(F)(F)P(=O)(O)O)c(Br)c2c1 [Compound 126] | 6.11 | 5.23
27 | O=C(NC1CCCOC1)c1ccc2sc(C(F)(F)P(=O)(O)O)c(Br)c2c1 (stereo not shown) [Compound 127] | 6.7 | 5.14
28 | O=C(NC1CCS(=O)(=O)CC1)c1ccc2sc(C(F)(F)P(=O)(O)O)c(Br)c2c1 [Compound 128] | 4.9 | 4.08
29 | Cc1c[nH]c(CNC(=O)c2ccc3sc(C(F)(F)P(=O)(O)O)c(Br)c3c2)c(C)c1=O [Compound 129] | 2.65 | 2.23
30 | C[C@@H](NC(=O)c1ccc2sc(C(F)(F)P(=O)(O)O)c(Br)c2c1)c1cccnn1 [Compound 130] | 1.22 | 1.09
31 | O=C1NC[C@@H](CNC(=O)c2ccc3sc(C(F)(F)P(=O)(O)O)c(Br)c3c2)N1 [Compound 131] | 4.16 | 4.13
32 | O=C1NC[C@H](CNC(=O)c2ccc3sc(C(F)(F)P(=O)(O)O)c(Br)c3c2)N1 [Compound 132] | 5.23 | 4.7
33 | O=C(NCc1ccc(F)nc1)c1ccc2sc(C(F)(F)P(=O)(O)O)c(Br)c2c1 [Compound 133] | 1.18 | 1.45
34 | O=C(NCc1ccc[n+]([O-])c1)c1ccc2sc(C(F)(F)P(=O)(O)O)c(Br)c2c1 [Compound 134] | 2.88 | 2.4
35 | O=C(NCc1cncc(F)c1)c1ccc2sc(C(F)(F)P(=O)(O)O)c(Br)c2c1 [Compound 135] | 1.9 | 1.92
36 | O=C1CCC(CNC(=O)c2ccc3sc(C(F)(F)P(=O)(O)O)c(Br)c3c2)N1 (stereo not shown) [Compound 136] | 4.25 | 3.76
37 | Cc1ccc(CNC(=O)c2ccc3sc(C(F)(F)P(=O)(O)O)c(Br)c3c2)nn1 [Compound 137] | 1.42 | 1.09
38 | CC(NC(=O)c1ccc2sc(C(F)(F)P(=O)(O)O)c(Br)c2c1)c1cncnc1 (stereo not shown) [Compound 138] | 2.91 | 2.08
39 | O=C(NCc1ncn[nH]1)c1ccc2sc(C(F)(F)P(=O)(O)O)c(Br)c2c1 [Compound 139] | 1.49 | 1.3
40 | O=C(NCc1c[nH]nn1)c1ccc2sc(C(F)(F)P(=O)(O)O)c(Br)c2c1 [Compound 140] | 1.81 | 1.48
41 | Cn1cncc1CNC(=O)c1ccc2sc(C(F)(F)P(=O)(O)O)c(Br)c2c1 [Compound 141] | 3.72 | 2.32
42 | O=C(NCc1cn2ccccc2n1)c1ccc2sc(C(F)(F)P(=O)(O)O)c(Br)c2c1 [Compound 142] | 1.87 | 2.64

Row | Structure (SMILES) | IC50 (human PTPN2 (1-387)) [µM] | IC50 (human PTPN1 (1-435)) [µM]
43 | O=C(NCCn1cnnc1)c1ccc2sc(C(F)(F)P(=O)(O)O)c(Br)c2c1 [Compound 143] | 6.14 | 4.34
44 | O=C(NCCn1cccn1)c1ccc2sc(C(F)(F)P(=O)(O)O)c(Br)c2c1 [Compound 144] | 7.17 | 1.41
45 | CC(Cn1cncn1)NC(=O)c1ccc2sc(C(F)(F)P(=O)(O)O)c(Br)c2c1 (stereo not shown) [Compound 145] | 6.98 | 4.59
46 | O=C(NCCn1cncn1)c1ccc2sc(C(F)(F)P(=O)(O)O)c(Br)c2c1 [Compound 146] | 7.47 | 3.65
47 | O=C(NCCn1ccnn1)c1ccc2sc(C(F)(F)P(=O)(O)O)c(Br)c2c1 [Compound 147] | 5.66 | 3.19
48 | CC(Cn1ccnc1)NC(=O)c1ccc2sc(C(F)(F)P(=O)(O)O)c(Br)c2c1 (stereo not shown) [Compound 148] | 5.94 | 5.27
49 | Cc1cnn(CCNC(=O)c2ccc3sc(C(F)(F)P(=O)(O)O)c(Br)c3c2)c1 [Compound 149] | 6.01 | 3.13
50 | O=C(NCCn1nncc1-c1ccccc1)c1ccc2sc(C(F)(F)P(=O)(O)O)c(Br)c2c1 [Compound 150] | 6.28 | 2.59
51 | CC(CC1C=Nc2ccc(F)cc21)NC(=O)c1ccc2sc(C(F)(F)P(=O)(O)O)c(Br)c2c1 (stereo not shown) [Compound 151] | 5.98 | 2.74
52 | COc1ccc2c(c1)C(CC(C)NC(=O)c1ccc3sc(C(F)(F)P(=O)(O)O)c(Br)c3c1)C=N2 (stereo not shown) [Compound 152] | 8.22 | 4.41
53 | O=C(NCCc1c[nH]c2ccccc12)c1ccc2sc(C(F)(F)P(=O)(O)O)c(Br)c2c1 [Compound 153] | 1.95 | 3.16
54 | COc1ccc2[nH]cc(CCNC(=O)c3ccc4sc(C(F)(F)P(=O)(O)O)c(Br)c4c3)c2c1 [Compound 154] | 2.77 | 1.52
55 | Cn1cc(CCNC(=O)c2ccc3sc(C(F)(F)P(=O)(O)O)c(Br)c3c2)c2ccccc21 [Compound 155] | 2.16 | 2.38
56 | O=C(NCCn1ccc2ccccc21)c1ccc2sc(C(F)(F)P(=O)(O)O)c(Br)c2c1 [Compound 156] | 0.902 | 1.79
57 | O=C(NCCSC(F)(F)F)c1ccc2sc(C(F)(F)P(=O)(O)O)c(Br)c2c1 [Compound 157] | 5.25 | 2.38
58 | O=C(NC(c1cccnc1)C(F)(F)F)c1ccc2sc(C(F)(F)P(=O)(O)O)c(Br)c2c1 (stereo not shown) [Compound 158] | 0.456 | 1.45
59 | O=C(NCc1c[nH]nn1)c1cc(Cl)c2sc(C(F)(F)P(=O)(O)O)c(Br)c2c1 [Compound 159] | 0.47 | 0.251
60 | O=C(NCc1cccnn1)c1cc(Cl)c2sc(C(F)(F)P(=O)(O)O)c(Br)c2c1 [Compound 160] | 0.546 | 0.315
61 | N#Cc1cc(C(=O)NCc2cccnn2)cc2c(Br)c(C(F)(F)P(=O)(O)O)sc12 [Compound 161] | 0.344 | 0.446
62 | N#Cc1cc(C(=O)NCc2c[nH]nn2)cc2c(Br)c(C(F)(F)P(=O)(O)O)sc12 [Compound 162] | 0.222 | 0.244
